Results as given in ChEMBL document CHEMBL1201862, “PubChem BioAssay data set” (2004).
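Protocol summary: plate cells (96-well), add compound at 5 concentrations, incubate 48 h, interpolate endpoints linearly. Abbreviation: GI50, concentration required for 50% inhibition of growth.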 Calls of active or inactive are those of the source. Rule as the data show it: active = GI50 up to about 1.1 µM and inactive = higher.

How the values were obtained:
Test in all cases: growth of human tumour cells (NCI), 48 h
DLD-1 = test system: DLD-1
DMS-114 = test system: DMS-114
HOP-18 = test system: HOP-18
KM-20L2 = test system: KM-20L2
M19-MEL = test system: M19-MEL
SNB-78 = test system: SNB-78
Hs-578T = test system: Hs-578T
RXF 631 = test system: RXF 631
XF498 = test system: XF498

SMILES | GI50 (DLD-1) | GI50 (DMS-114) | GI50 (M19-MEL) | GI50 (Hs-578T) | further results
CN(C)CCNC(=O)c1cc2ccccc2c2nc3ccccc3nc12 | 0.447 µM (active) | 0.83 µM (active) | 1.01 µM (active) | – | GI50 (HOP-18): 5.82 µM (inactive); GI50 (KM-20L2): 0.946 µM (active); GI50 (SNB-78): 3.55 µM (inactive)
CN(C(=O)Cc1cc(Cl)c(Cl)cc1NC(=O)CN)[C@H]1CCCC[C@@H]1N1CCCC1 | – | – | – | 23.1 µM (inactive) | –
O=C(/C=C\c1ccccc1)Oc1ccc(/C=C2\CCCCC2=O)cc1 | – | – | – | 61 µM (inactive) | –
O=C(c1ccc(Cl)cc1)N(C(=S)OCCOc1ccccc1)c1ccccc1 | – | – | – | 46.9 µM (inactive) | –
CCCC(=O)Oc1ccc(/C=N/NC(N)=S)nc1 | > 100 µM (inactive) | 38.2 µM (inactive) | > 100 µM (inactive) | – | GI50 (HOP-18): > 100 µM (inactive); GI50 (KM-20L2): > 100 µM (inactive); GI50 (SNB-78): > 100 µM (inactive)
Cc1cn([C@@H]2O[C@H](CO)[C@@H](O)[C@@H]2O)c(=O)[nH]c1=O | – | – | – | > 1000 µM (inactive) | –
CC(=O)Nc1ccc2c(C(=O)O)c(C)c(O)nc2n1 | – | – | – | > 100 µM (inactive) | –
N#Cc1ccc(Cc2ccccn2)cc1Cl | > 100 µM (inactive) | > 100 µM (inactive) | > 100 µM (inactive) | – | GI50 (HOP-18): > 100 µM (inactive); GI50 (RXF 631): > 100 µM (inactive); GI50 (SNB-78): > 100 µM (inactive)
CC(CSc1nc2c(c(=N)n1-c1ccccc1)c(=S)n(-c1ccccc1)c(=S)n2-c1ccccc1)CN(C)C (configuration not stated) | – | – | – | 2.5 µM (inactive) | –
COC1=CC(=O)C2(C=C1OC)OC[C@H]1Oc3c(ccc4c3C=CC(C)(C)O4)C(=O)[C@H]12 (some centres not stated) | 43.6 µM (inactive) | 25.2 µM (inactive) | 40.8 µM (inactive) | – | GI50 (KM-20L2): 46.1 µM (inactive); GI50 (RXF 631): > 100 µM (inactive); GI50 (SNB-78): 37.8 µM (inactive); GI50 (XF498): 40.9 µM (inactive)
CCOC(=O)C#Cc1ccc(C#CC(=O)OCC)cc1 | – | – | – | 3.15 µM (inactive) | –
CC(C)C(OC(=O)c1ccc(NCC2=CC(=O)C=CC2=O)cc1)C(C)C | – | – | – | 3.68 µM (inactive) | –
C=CC(C)(C)C1(CC(OC)OC)C(=O)N(C)c2ccccc21 (configuration not stated) | – | – | – | > 25 µM (inactive) | –
Cc1cc(=O)oc2cc(OS(C)(=O)=O)ccc12 | – | – | – | > 100 µM (inactive) | –
Cc1cc([N+](=O)[O-])c(C)c2c1[nH]c1ccc(O)cc12 | 16.8 µM (inactive) | 66.4 µM (inactive) | > 100 µM (inactive) | – | GI50 (HOP-18): 55.1 µM (inactive); GI50 (SNB-78): > 100 µM (inactive); GI50 (XF498): > 100 µM (inactive)
COc1cc(Cl)c(CC(=O)c2c[nH]c3ccccc23)cc1OC | – | – | – | 23.6 µM (inactive) | –
COc1ccc2[nH]cc(CCNC(=O)[C@](O)(Cc3cn(C)c4ccccc34)[C@@]3(O)OCC(O)C3O)c2c1 (some centres not stated) | > 100 µM (inactive) | 35.6 µM (inactive) | > 100 µM (inactive) | – | GI50 (HOP-18): > 100 µM (inactive); GI50 (KM-20L2): > 100 µM (inactive); GI50 (RXF 631): > 100 µM (inactive); GI50 (XF498): 90.6 µM (inactive)
COC(=O)c1cc2c(=O)n(C)c3ccccc3n2c1C(=O)OC | 30.1 µM (inactive) | > 100 µM (inactive) | > 100 µM (inactive) | – | GI50 (KM-20L2): 53.3 µM (inactive); GI50 (RXF 631): > 100 µM (inactive); GI50 (SNB-78): > 100 µM (inactive); GI50 (XF498): 20.4 µM (inactive)
CN(C)/N=N/c1ccccc1 | > 100 µM (inactive) | 31.6 µM (inactive) | 43.4 µM (inactive) | – | GI50 (HOP-18): > 100 µM (inactive); GI50 (KM-20L2): 42.3 µM (inactive); GI50 (XF498): > 100 µM (inactive)
BrCc1ccc2ccc3ccc(CBr)nc3c2n1 | – | 3.85 µM (inactive) | 3.86 µM (inactive) | 17.9 µM (inactive) | GI50 (HOP-18): 1.83 µM (inactive); GI50 (KM-20L2): 3.28 µM (inactive); GI50 (SNB-78): 2.13 µM (inactive)
Cc1ccc(/N=N/C(C(=O)c2ccccc2)C(=O)c2ccccc2)cc1 | 21.9 µM (inactive) | 20.1 µM (inactive) | 16 µM (inactive) | – | GI50 (KM-20L2): 25.3 µM (inactive); GI50 (RXF 631): 35.8 µM (inactive); GI50 (XF498): 20.1 µM (inactive)
O=C1CCN2C(=N1)Sc1ccccc12 | – | – | – | > 100 µM (inactive) | –
Cc1c(C(=O)c2ccccc2)[n+]([O-])c2cc(Cl)c(Cl)cc2[n+]1[O-] | – | – | – | 6.34 µM (inactive) | –
Cc1cn(C2CC(OC(=O)c3ccc(Cl)cc3)C(COC(=O)c3ccc(Cl)cc3)O2)c(=O)[nH]c1=O (configuration not stated) | – | – | – | > 100 µM (inactive) | –
C=C1OC(c2ccccc2NC)=NC12CCCCC2 | – | – | – | > 100 µM (inactive) | –
COc1ccc2c(c1)O[C@@H]1c3ccc(OC)cc3OC[C@H]21 | 45.2 µM (inactive) | 27.5 µM (inactive) | 31.4 µM (inactive) | – | GI50 (SNB-78): 33.8 µM (inactive); GI50 (XF498): 25.6 µM (inactive)
COc1ccc2cc3c4cc5c(cc4cc[n+]3cc2c1OC)OCO5 | – | – | – | 3.26 µM (inactive) | –
COc1ccccc1C(=O)c1c(NCc2ccccc2)c(=O)c1=O | – | – | – | > 100 µM (inactive) | –
COc1ccc(/C=C/C(=O)c2nc3ccccc3[nH]2)cc1 | – | – | – | 21.3 µM (inactive) | –
CC(C)(C)OC(=O)c1ccc(NCc2cc(O)ccc2O)cc1 | – | – | – | 1.69 µM (inactive) | –
